Measurements published in article PMC7985570 (Signal Transduction and Targeted Therapy, 2021).
Read-outs that look alike come from different tables or passages of the source.

Assays:
[1] = test system: SARS-CoV-2 S-G614 pseudovirus; conditions: for EC50: read-out: S-G614 Pseudovirus EC50
[2] = test system: SARS-CoV-2 S-G614 pseudovirus; experiment: organism not typed; conditions: 293T/ACE2, read-out: S-G614 Pseudovirus EC50
[3] = in vitro; conditions: human, 293T-ACE2 CC50
[4] = test system: VSV-G pseudovirus; experiment: microbe, parasite or virus in culture; assay type: cell-based; conditions: read-out: VSV-G Pseudovirus EC50
[5] = test system: S-G614 pseudovirus; experiment: microbe, parasite or virus in culture; assay type: cell-based, SARS-CoV-2; conditions: for EC50: Pseudovirus, 293T/ACE2, read-out: 293T-ACE2 Cells EC50 BAPTA-AM (0μM)
[6] = test system: native SARS-CoV-2; assay type: cell-based
[7] = target: receptor-binding domain (RBD) in the S protein of SARS-CoV-2 (Severe acute respiratory syndrome coronavirus 2, UniProt P0DTC2)
[8] = test system: SARS-CoV-2 S-mediated membrane fusion of 293T-ACE2 cells; assay type: cell-based
[9] = test system: S-G614 pseudovirus; experiment: microbe, parasite or virus in culture; assay type: cell-based; conditions: read-out: EC50 against S-G614 pseudovirus in all three cell lines
[10] = test system: 293T-ACE2 cells
[11] = test system: SARS-CoV-2; conditions: cited from earlier work

| Compound | SI (cytotoxicity) ([1]; human) | EC50 [2] [µM] | CC50 [3] [µM] | EC50 ([4]; Pseudovirus) [µM] | CC50 [10] [µM] | SI (cytotoxicity) [1] | EC50 [1] [µM] | EC50 [4] [µM] | further results |
| --- | --- | --- | --- | --- | --- | --- | --- | --- | --- |
| CCOC(=O)[C@H]1O[C@@H]1C(=O)N[C@@H](CC(C)C)C(=O)NCCC(C)C [Aloxistatin, aloxistatin, reference compound] | >54.17 | 0.923 | > 50 | > 50 | – | – | – | – | – |
| CC(=O)OCOC(=O)CN(CC(=O)OCOC(C)=O)c1ccccc1OCCOc1ccccc1N(CC(=O)OCOC(C)=O)CC(=O)OCOC(C)=O [BAPTA-AM, reference compound] | – | – | – | – | – | – | – | – | SARS-CoV-2 pseudovirus infection on intracellular Ca2+ chelation [5]: significantly diminished |
| COc1c2c(cc3c1-c1c(cc4c(c1OC)OCO4)C[C@H](C)[C@H](C)C3)OCO2 [SC8, Schisandrin C] | >3.43 | 14.6 | > 50 | – | – | – | – | – | – |
| COc1ccc2cc1Oc1ccc(cc1)C[C@H]1c3c(cc4c(c3Oc3cc5c(cc3OC)CCN(C)[C@@H]5C2)OCO4)CCN1C [SC9, Cepharanthine] | – | – | – | – | – | – | – | – | Virus-induced cytopathogenic effect and viral RNA levels [6]: partially inhibited; relative viral RNA levels [6]: 0.08%; EC50 [5]: 0.315 µM; interaction with RBD [7]: negligible; decrease of fusion rates [8]: approximately 90%; EC50 [9]: < 10 µM |
| CC(N)C12CC3CC(CC(C3)C1)C2.Cl (stereo not shown) [SC16, Rimantadine (hydrochloride)] | – | – | – | – | > 50 | >1.45 | 34.6 | – | – |
| Cc1cccc2c3c(ccc12)C1=C(C(=O)C3=O)[C@@H](C)CO1 [SC24, Dihydrotanshinone I] | 0.90 | 15.7 | 33.5 | – | – | – | – | – | – |
| Cl.N=c1ccn2c(n1)O[C@H]1[C@H](O)[C@@H](CO)O[C@H]12 [SC33, Ancitabine (hydrochloride)] | – | – | – | – | > 50 | >4.94 | 10.1 | > 50 | – |
| O=C1Nc2ccc(Cl)cc2[C@@](C#CC2CC2)(C(F)(F)F)O1 [SC102, Efavirenz] | >130890 | 0.00038 | > 50 | 0.000723 | – | – | – | – | – |
| Cc1nnc(C(=O)NC(C)(C)c2nc(C(=O)NCc3ccc(F)cc3)c([O-])c(=O)n2C)o1.[K+] [SC109, Raltegravir (potassium salt)] | – | – | – | – | > 50 | >247647 | 0.0002 | 0.0359 | – |
| COc1ccc2cc1Oc1ccc(cc1)C[C@H]1c3cc(c(OC)cc3CCN1C)Oc1c(OC)c(OC)c(OC)c3c1[C@H](C2)N(C)CC3 [SC161, Hernandezine] | – | – | – | – | – | – | – | – | Virus-induced cytopathogenic effect and viral RNA levels [6]: partially inhibited; relative viral RNA levels [6]: 70.27%; EC50 [5]: 0.111 µM; interaction with RBD [7]: negligible; decrease of fusion rates [8]: approximately 90%; EC50 [9]: < 10 µM |
| CC1CCN(CC(O)COc2cccc(OCC(O)CN3CCC(C)CC3)c2)CC1 (stereo not shown) [SC171, 3,3'-(1,3-phenylenebis(oxy))bis(1-(4-methylpiperidin-1-yl)propan-2-ol)] | – | – | – | – | – | – | – | – | Virus-induced cytopathogenic effect and viral RNA levels [6]: partially inhibited; relative viral RNA levels [6]: 43.55%; EC50 [5]: 3.83 µM; interaction with RBD [7]: negligible; EC50 [9]: < 10 µM |
| COc1ccc2cc1Oc1ccc(cc1)C[C@H]1c3cc(c(OC)cc3CCN1C)Oc1c(O)c(OC)cc3c1[C@H](C2)N(C)CC3 [SC180, Fangchinoline] | >53.39 | 0.94 | > 50 | 4.39 | – | – | – | – | – |
| COc1ccc2cc1Oc1ccc(cc1)CC1c3cc(c(OC)cc3CCN1C)Oc1c(O)c(OC)cc3c1C(C2)N(C)CC3 (stereo not shown) [SC181, Isofangchinoline] | – | – | – | – | > 50 | >45.00 | 1.11 | 3.95 | – |
| COc1ccc2cc1Oc1ccc(cc1)C[C@H]1c3cc(c(OC)cc3CCN1C)Oc1c(OC)c(OC)cc3c1[C@H](C2)N(C)CC3 [SC182, Tetrandrine] | >55.80 | 0.9 | > 50 | 27.9 | – | – | – | – | decrease of fusion rates [8]: approximately 90%; EC50 [9]: < 10 µM |
| COc1cc2c(cc1OC)[C@@H](Cc1ccc(Oc3cc(C[C@@H]4c5cc(OC)c(OC)cc5CCN4C)ccc3O)cc1)N(C)CC2 [SC184, Dauricine] | >34.99 | 1.43 | > 50 | > 50 | – | – | – | – | – |
| COc1ccc(C[C@@H]2c3cc(Oc4cc(C[C@@H]5c6cc(OC)c(OC)cc6CCN5C)ccc4O)c(OC)cc3CCN2C)cc1 [SC185, Neferine] | – | 0.95 | > 50 | > 50 | – | – | – | – | Virus-induced cytopathogenic effect and viral RNA levels [6]: partially inhibited; relative viral RNA levels [6]: 76.98%; EC50 [5]: 0.946 µM; interaction with RBD [7]: negligible; decrease of fusion rates [8]: approximately 90%; EC50 [9]: < 10 µM |
| COc1cc2c(cc1OC)[C@@H](Cc1ccc(O)c(Oc3cc4c(cc3OC)CCN(C)[C@@H]4Cc3ccc(O)cc3)c1)N(C)CC2 [SC186, Liensinine] | – | – | – | – | > 50 | >49.80 | 1 | > 50 | – |
| COc1cc2c(cc1O)[C@@H](Cc1ccc(O)c(Oc3ccc(C[C@@H]4c5cc(OC)c(OC)cc5CCN4C)cc3)c1)N(C)CC2 [SC187, Daurisoline] | – | – | – | – | > 50 | >20.13 | 2.48 | > 50 | – |
| COc1ccc(C[C@@H]2c3cc(Oc4cc(C[C@@H]5c6cc(O)c(OC)cc6CCN5C)ccc4O)c(OC)cc3CCN2C)cc1 [SC188, Isoliensinine] | >38.88 | 1.29 | > 50 | 7.02 | – | – | – | – | – |
| CCOC(=O)C1=C(COCCN)NC(C)=C(C(=O)OC)C1c1ccccc1Cl (stereo not shown) [amlodipine] | – | – | – | – | – | – | – | – | viral infection [11]: reduced viral infection |
| Aloperine [SC96] | – | – | – | – | > 50 | >176.87 | 0.28 | 10.8 | – |
| Berbamine hydrochloride [SC183] | >38.94 | – | – | – | – | – | 1.28 | > 50 | CC50 ([10]; human): > 50 µM |
